# Source: ChEMBL document CHEMBL5329189, “Design, synthesis, and anti-hepatocellular carcinoma of thiopyrimidine/chalcone hybrids as dual STAT3/STAT5 inhibitors” (RSC Med Chem, 2023)
# Calls of active or inactive are those of the source. The calls are words filed in the database; no cut-off is given here.
# Assays:
# [1] = target: Signal transducer and activator of transcription 3 (Homo sapiens) (UniProt P40763); assay: Inhibition of STAT3 (unknown origin) using TMB as substrate assessed as reduction in phosphorylated STAT3 at Y705 residue by measuring fold change at 10 uM incubated for 5 hrs by ELISA relative to control
# Chain of Signal transducer and activator of transcription 3 (Homo sapiens) (P40763 whole entry): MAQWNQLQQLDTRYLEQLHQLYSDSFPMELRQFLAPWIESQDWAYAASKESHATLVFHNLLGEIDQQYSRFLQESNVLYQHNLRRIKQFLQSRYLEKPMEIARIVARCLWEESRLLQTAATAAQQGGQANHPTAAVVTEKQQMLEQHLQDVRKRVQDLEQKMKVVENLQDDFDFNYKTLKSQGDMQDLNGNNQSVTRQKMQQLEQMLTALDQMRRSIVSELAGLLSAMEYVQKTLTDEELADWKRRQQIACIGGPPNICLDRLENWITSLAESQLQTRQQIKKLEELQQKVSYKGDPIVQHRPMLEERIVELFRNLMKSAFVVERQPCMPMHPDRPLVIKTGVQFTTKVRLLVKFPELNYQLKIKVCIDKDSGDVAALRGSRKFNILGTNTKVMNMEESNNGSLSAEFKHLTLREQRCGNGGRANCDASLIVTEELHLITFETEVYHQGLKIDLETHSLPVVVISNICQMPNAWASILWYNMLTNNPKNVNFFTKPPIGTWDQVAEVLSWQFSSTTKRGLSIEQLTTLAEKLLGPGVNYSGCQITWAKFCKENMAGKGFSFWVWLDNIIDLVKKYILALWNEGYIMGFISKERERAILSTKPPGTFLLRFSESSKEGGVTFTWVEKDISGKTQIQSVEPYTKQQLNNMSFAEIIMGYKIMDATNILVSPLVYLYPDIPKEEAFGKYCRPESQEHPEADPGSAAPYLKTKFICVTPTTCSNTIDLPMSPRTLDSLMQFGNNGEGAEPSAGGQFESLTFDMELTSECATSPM
# [2] = target: Signal transducer and activator of transcription 3 (Homo sapiens) (UniProt P40763); assay: Inhibition of STAT3 (unknown origin) using TMB as substrate assessed as reduction in phosphorylated STAT3 at Y705 residue at 10 uM incubated for 5 hrs by ELISA (reference value: 14.53 +/- 0.4 ng/ml)
# [3] = target: T1, Signal transducer and activator of transcription 5A (Homo sapiens) (UniProt P42229); assay: Inhibition of STAT5a (unknown origin) using TMB as substrate assessed as reduction in phosphorylated STAT5a at Y694 residue by measuring fold change at 10 uM incubated for 1.5 hrs by ELISA relative to control
# T1 sequence (whole entry): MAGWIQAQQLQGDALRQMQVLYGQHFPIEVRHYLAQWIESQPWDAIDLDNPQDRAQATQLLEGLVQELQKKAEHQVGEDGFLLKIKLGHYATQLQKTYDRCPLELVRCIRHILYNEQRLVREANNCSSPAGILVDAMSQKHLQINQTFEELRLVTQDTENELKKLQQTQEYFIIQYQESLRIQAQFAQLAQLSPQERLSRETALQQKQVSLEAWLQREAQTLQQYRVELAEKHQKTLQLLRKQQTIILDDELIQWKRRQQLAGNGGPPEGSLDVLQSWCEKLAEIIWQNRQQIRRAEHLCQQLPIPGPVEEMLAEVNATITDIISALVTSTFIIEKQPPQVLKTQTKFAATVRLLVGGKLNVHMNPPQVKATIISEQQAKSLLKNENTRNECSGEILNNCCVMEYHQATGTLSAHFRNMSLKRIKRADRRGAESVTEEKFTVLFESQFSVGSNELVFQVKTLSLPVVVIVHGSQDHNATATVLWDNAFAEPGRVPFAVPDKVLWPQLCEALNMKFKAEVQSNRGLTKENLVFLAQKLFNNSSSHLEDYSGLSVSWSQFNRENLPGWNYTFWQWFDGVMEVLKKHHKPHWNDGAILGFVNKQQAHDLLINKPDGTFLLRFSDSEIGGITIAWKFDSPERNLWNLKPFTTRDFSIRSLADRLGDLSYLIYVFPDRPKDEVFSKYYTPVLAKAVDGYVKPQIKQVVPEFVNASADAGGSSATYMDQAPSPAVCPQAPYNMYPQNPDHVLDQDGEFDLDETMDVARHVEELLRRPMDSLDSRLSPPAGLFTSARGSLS
# [4] = Selectivity index, ratio of IC50 for cytotoxicity against THLE-2 cells to IC50 for antitumor activity against human HepG2 cells; assay type: cell-based; settings: THLE-2 cells versus HepG2 cells, read-out: Ratio IC50
# [5] = Selectivity index, ratio of IC50 for cytotoxicity against THLE-2 cells to IC50 for antitumor activity against human Huh-7 cells; assay type: cell-based; settings: THLE-2 cells versus Huh-7 cells, read-out: Ratio IC50
# HepG2 [6] = assay: Antitumor activity against human HepG2 cells measured after 48 hrs by MTT assay; assay type: functional, cell-based; settings: HepG2, 48 h
# [7] = Cytotoxicity against THLE-2 cells measured after 48 hrs by MTT assay; assay type: toxicity, cell-based; settings: human
# Huh-7 [8] = assay: Antitumor activity against human Huh7 cells measured after 48 hrs by MTT assay; assay type: functional, cell-based; settings: Huh-7, 48 h
# [9] = target: T1, Signal transducer and activator of transcription 5A (Homo sapiens); assay: Inhibition of STAT5a (unknown origin) using TMB as substrate assessed as reduction in phosphorylated STAT5a at Y694 residue at 10 uM incubated for 1.5 hrs by ELISA (reference value: 11.15 +/- 0.91 ng/ml)
# [10] = target: Signal transducer and activator of transcription 3 (Homo sapiens) (UniProt P40763); assay: Inhibition of STAT3 (unknown origin) using TMB as substrate assessed as reduction in phosphorylated STAT3 at Y705 residue incubated for 5 hrs by ELISA (reference value: 14.53 +/- 0.4 ng/ml)
# [11] = target: T1, Signal transducer and activator of transcription 5A (Homo sapiens); assay: Inhibition of STAT5a (unknown origin) using TMB as substrate assessed as reduction in phosphorylated STAT5a at Y694 residue incubated for 1.5 hrs by ELISA (reference value: 11.15 +/- 0.91 ng/ml)
# [12] = target: Signal transducer and activator of transcription 3 (Homo sapiens) (UniProt P40763); assay: Inhibition of STAT3 phosphorylation at Tyr705 residue in human HepG2 cells incubated for 24 hrs by Western blot analysis; assay type: cell-based
# Huh-7 [13] = assay: Potency index, ratio of doxorubicin IC50 to test compound IC50 for antitumor activity against human Huh-7 cells incubated for 48 hrs by MTT assay; assay type: functional
# HepG2 [14] = assay: Potency index, ratio of stattic IC50 to test compound IC50 for antitumor activity against human HepG2 cells incubated for 48 hrs by MTT assay; assay type: functional
# HepG2 [15] = assay: Effect on total STAT5 protein level in human HepG2 cells incubated for 24 hrs by Western blot analysis; assay type: functional, cell-based
# HepG2 [16] = assay: Potency index, ratio of doxorubicin IC50 to test compound IC50 for antitumor activity against human HepG2 cells incubated for 48 hrs by MTT assay; assay type: functional
# Huh-7 [17] = assay: Potency index, ratio of static IC50 to test compound IC50 for antitumor activity against human Huh-7 cells incubated for 48 hrs by MTT assay; assay type: functional
# HepG2 [18] = assay: Inhibition of STAT5 phosphorylation at Tyr694 residue in human HepG2 cells incubated for 24 hrs by Western blot analysis; assay type: cell-based
# HepG2 [19] = assay: Effect on total STAT3 protein level in human HepG2 cells incubated for 24 hrs by Western blot analysis; assay type: functional, cell-based
# [20] = target: T2, Signal transducer and activator of transcription 1-alpha/beta (Homo sapiens) (UniProt P42224); assay: Inhibition of STAT1 in human HepG2 cells assessed as reduction in STAT1 phosphorylation at Tyr701 residue incubated for 24 hrs by Western blot analysis; assay type: cell-based
# T2 sequence (whole entry): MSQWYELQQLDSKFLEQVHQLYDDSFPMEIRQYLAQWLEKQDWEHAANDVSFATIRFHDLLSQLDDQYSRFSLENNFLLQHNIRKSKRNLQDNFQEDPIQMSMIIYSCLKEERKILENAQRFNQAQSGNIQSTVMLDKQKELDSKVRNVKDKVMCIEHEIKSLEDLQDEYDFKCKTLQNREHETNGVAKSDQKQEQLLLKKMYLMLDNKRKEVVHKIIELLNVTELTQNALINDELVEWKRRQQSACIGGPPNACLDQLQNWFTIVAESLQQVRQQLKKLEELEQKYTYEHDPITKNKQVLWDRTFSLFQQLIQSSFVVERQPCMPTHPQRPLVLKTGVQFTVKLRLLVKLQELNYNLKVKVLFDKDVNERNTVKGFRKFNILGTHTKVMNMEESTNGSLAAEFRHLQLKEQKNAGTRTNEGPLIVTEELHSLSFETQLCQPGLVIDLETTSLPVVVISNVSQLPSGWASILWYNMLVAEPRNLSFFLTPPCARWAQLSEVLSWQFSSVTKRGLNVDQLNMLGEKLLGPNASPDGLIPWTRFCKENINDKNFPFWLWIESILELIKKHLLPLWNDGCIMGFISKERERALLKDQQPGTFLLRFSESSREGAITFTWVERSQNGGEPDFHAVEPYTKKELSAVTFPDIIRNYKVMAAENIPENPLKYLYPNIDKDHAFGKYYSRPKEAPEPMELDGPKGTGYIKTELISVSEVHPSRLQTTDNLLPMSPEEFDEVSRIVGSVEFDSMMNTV
structure (smiles),measurement,setting,value
Cc1ccc(/C=C/C(=O)c2ccc(NC(=O)CSc3nc(N)cc(=O)[nH]3)cc2)cc1,fold change (FC),[1],2.8
same,Activity,[2],5.09 ng/mL
same,fold change (FC),[3],2.5
same,selectivity ratio,[4],19.2
same,selectivity ratio,[5],20.3
same,IC50,HepG2 [6],2.58 µM
same,IC50 at 48 h,[7],49.5 µM
same,IC50,Huh-7 [8],2.44 µM
same,Activity,[9],4.44 ng/mL
O=[N+]([O-])c1ccc2c(c1)S(=O)(=O)C=C2,Activity,[10],4.9 ng/mL
same,IC50,HepG2 [6],8.35 µM
same,IC50 at 48 h,[7],> 100 µM
same,IC50,Huh-7 [8],7.89 µM
same,Activity,[11],9.43 ng/mL
COc1ccc(/C=C/C(=O)c2ccc(NC(=O)CSc3nc(N)cc(=O)[nH]3)cc2)cc1,IC50,HepG2 [6],8.14 µM
same,IC50,Huh-7 [8],6.7 µM
COc1cc(/C=C/C(=O)c2ccc(NC(=O)CSc3nc(N)cc(=O)[nH]3)cc2)cc(OC)c1,IC50,HepG2 [6],5.08 µM
same,IC50,Huh-7 [8],1.58 µM
Nc1cc(=O)[nH]c(SCC(=O)Nc2ccc(C(=O)/C=C/c3ccc(Cl)cc3)cc2)n1,IC50,HepG2 [6],11.2 µM
same,IC50,Huh-7 [8],7.27 µM
Nc1cc(=O)[nH]c(SCC(=O)Nc2ccc(C(=O)/C=C/c3ccc(Cl)cc3Cl)cc2)n1,IC50,HepG2 [6],4.94 µM
same,IC50,Huh-7 [8],8.32 µM
Nc1cc(=O)[nH]c(SCC(=O)Nc2ccc(C(=O)/C=C/c3ccc(F)cc3)cc2)n1,IC50,HepG2 [6],22.6 µM
same,IC50,Huh-7 [8],25 µM
Nc1cc(=O)[nH]c(SCC(=O)Nc2ccc(C(=O)/C=C/c3ccccc3Cl)cc2)n1,IC50,HepG2 [6],3.57 µM
same,IC50,Huh-7 [8],2.17 µM
COc1cccc2c1C(=O)c1c(O)c3c(c(O)c1C2=O)C[C@@](O)(C(=O)CO)C[C@@H]3O[C@H]1C[C@H](N)[C@H](O)[C@H](C)O1 [DOXORUBICIN],IC50,HepG2 [6],7.34 µM
same,IC50,Huh-7 [8],5.7 µM
CN(C)c1ccc(/C=C/C(=O)c2ccc(NC(=O)CSc3nc(N)cc(=O)[nH]3)cc2)cc1,IC50,HepG2 [6],31.1 µM
same,IC50,Huh-7 [8],23.1 µM
COc1cc(/C=C/C(=O)c2ccc(NC(=O)CSc3nc(N)cc(=O)[nH]3)cc2)cc(OC)c1OC,inhibition,[12],Active
same,Ratio IC50,Huh-7 [13],10.4
same,fold change (FC),[1],4.5
same,Ratio IC50,HepG2 [14],4.2
same,Activity,HepG2 [15],inactive
same,Activity,[2],3.19 ng/mL
same,Ratio IC50,HepG2 [16],3.7
same,Ratio IC50,Huh-7 [17],14.3
same,inhibition,HepG2 [18],Active
same,fold change (FC),[3],4.8
same,selectivity ratio,[4],32.4
same,selectivity ratio,[5],115
same,Activity,HepG2 [19],inactive
same,IC50,HepG2 [6],1.95 µM
same,IC50 at 48 h,[7],63.2 µM
same,IC50,Huh-7 [8],0.55 µM
same,Activity,[9],2.28 ng/mL
same,inhibition,[20],inactive
